Each compound was assayed against T1, Recombinant human cathepsin A (Homo sapiens, UniProt P10619) (assay: Cathepsin A inhibitory activity). Conditions: pharmacological test "Cathepsin A inhibitory activity"; IC50 given as class A/B/C; read-out: Activity (2): Cathepsin A inhibitory activity, IC50 class.
T1 construct: Recombinant human cathepsin A (residues 29-480, with a C-terminal 10-His tag); 10-His (C); purchased R&D Systems 1049-SE
T1 sequence (P10619 29-312 limits assumed): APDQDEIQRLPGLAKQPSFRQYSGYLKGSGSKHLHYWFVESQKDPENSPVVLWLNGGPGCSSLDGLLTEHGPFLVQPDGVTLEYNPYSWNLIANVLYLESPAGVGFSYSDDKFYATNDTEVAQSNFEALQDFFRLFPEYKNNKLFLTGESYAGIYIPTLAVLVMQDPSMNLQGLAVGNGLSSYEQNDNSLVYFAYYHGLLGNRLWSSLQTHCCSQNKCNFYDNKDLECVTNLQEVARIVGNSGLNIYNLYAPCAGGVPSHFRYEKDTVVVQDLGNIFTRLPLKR
T1 sequence (P10619 327-480 limits assumed): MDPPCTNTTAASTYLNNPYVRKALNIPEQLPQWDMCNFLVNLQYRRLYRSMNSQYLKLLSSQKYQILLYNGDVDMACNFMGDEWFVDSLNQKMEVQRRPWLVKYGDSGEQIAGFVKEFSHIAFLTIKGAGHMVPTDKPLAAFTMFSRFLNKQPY
Type: biochemical
Outline: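 Read-out was microfluidic separation of cleaved vs. uncleaved Bodipy FL-bradykinin (2 μM), giving turnover, % inhibition and IC50. Compound and 833 ng/ml enzyme met for 15 min RT in pH 5.5 MES/DTT before substrate (15 min RT). The 29-480 His-tagged human enzyme was first activated by cathepsin L, then E-64 (10 μM).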
Compound O=C(O)CC(NC(=O)c1cc(O)n(-c2ccccc2Cl)n1)c1cccc(Cl)c1F (centres unmarked) [Example 222] has an IC50 of 0.1 to 1 µM.
For COc1ccc([C@H](CC(=O)O)NC(=O)c2cc(O)n(-c3cccc(Cl)c3)n2)cn1 [Example 269], the IC50 was 1 to 30 µM.
Work on COc1ccc(C(CC(=O)O)NC(=O)c2cc(O)n(-c3ccc(F)cc3F)n2)c(Cl)c1 (centres unmarked) [Example 179] yielded an IC50 of 0.1 to 1 µM.
Cc1ccccc1[C@H](CC(=O)O)NC(=O)c1cc(O)n(-c2ccncc2)n1 [Example 141] showed an IC50 of 1 to 30 µM.
O=C(O)C[C@H](NC(=O)c1cc(O)n(-c2ccccc2Cl)n1)c1ccc(F)cc1 [Example 211] showed an IC50 of 0.1 to 1 µM.
With COc1ccc(Cl)cc1C(CC(=O)O)NC(=O)c1cc(O)n(-c2ccc(F)cc2F)n1 (centres unmarked) [Example 178] the IC50 was 1 to 30 µM.
Work on COc1ccccc1[C@@H](NC(=O)c1cc(O)n(-c2ccccc2Cl)n1)[C@@H](O)C(=O)O [Example 216] yielded an IC50 of 1 to 30 µM.
With O=C(O)CC(NC(=O)c1cc(O)n(-c2ccccc2Cl)n1)c1ccc(-c2cccc(F)c2)cc1 (centres unmarked) [Example 219] the IC50 was 0.1 to 1 µM.
With O=C(O)CC(NC(=O)c1cc(O)n(-c2ccccc2Cl)n1)c1cccc(C(F)(F)F)c1 (centres unmarked) [Example 206] the IC50 was 0.1 to 1 µM.
N#Cc1cccc([C@H](CC(=O)O)NC(=O)c2cc(O)n(-c3ccccc3Cl)n2)c1 [Example 205] was tested, and the IC50 was 0.1 to 1 µM.

Same assay, conditions: read-out: Activity (2): Cathepsin A inhibitory activity (IC50 class)
COc1cc(C(=O)NC(CC(=O)O)c2ccc(F)cc2)nn1-c1ccccc1F (centres unmarked) [Example 678] gave an IC50 of 0.1 to 1 µM.
For O=C(O)CC(NC(=O)c1cc(O)n(-c2ccccc2Cl)n1)c1ccc(-c2ccccc2F)cc1 (centres unmarked) [Example 585, 3-{[1-(2-Chloro-phenyl)-5-hydroxy-1H-pyrazole-3-carbonyl]-amino}-3-(2′-fluoro-biphenyl-4-yl)-propionic acid], the IC50 was 0.1 to 1 µM.
With CC(C)(C)[C@@](C)(O)COc1cc(C(=O)N[C@@H](CC(=O)O)c2cccc(F)c2)nn1-c1ccccc1F [Example 779, (S)-3-(3-Fluoro-phenyl)-3-{[1-(2-fluoro-phenyl)-5-((R)-2-hydroxy-2,3,3-trimethyl-butoxy)-1H-pyrazole-3-carbonyl]-amino}-propionic acid] the IC50 was less than 0.1 µM.
CCOc1cc(C(=O)N[C@@H](CC(=O)O)c2ccccc2F)nn1-c1ccccc1F [Example 720] was tested, and the IC50 was less than 0.1 µM.
With COc1ccc(C(F)(F)F)cc1C(CC(=O)O)NC(=O)c1cc(O)n(-c2ccccc2F)n1 (centres unmarked) [Example 554, 3-{[1-(2-Fluoro-phenyl)-5-hydroxy-1H-pyrazole-3-carbonyl]-amino}-3-(2-methoxy-5-trifluoromethyl-phenyl)-propionic acid] the IC50 was 1 to 30 µM.
In the case of Cc1ccccc1[C@H](CC(=O)O)NC(=O)c1cc(OC(=O)N2CCCCC2)n(-c2ccccc2F)n1 [Example 619], the IC50 is reported as less than 0.1 µM.
Work on COc1c(Cl)c(C(=O)N[C@@H](CC(=O)O)c2ccccc2C)nn1-c1ccccc1F [Example 593] yielded an IC50 of 0.1 to 1 µM.
Cc1ccc(C(CC(=O)O)NC(=O)c2cc(O)n(-c3ccccc3F)n2)c(F)c1 (centres unmarked) [Example 555, 3-(2-Fluoro-4-methyl-phenyl)-3-{[1-(2-fluoro-phenyl)-5-hydroxy-1H-pyrazole-3-carbonyl]-amino}-propionic acid] was tested, and the IC50 was 0.1 to 1 µM.
Compound O=C(O)CC(NC(=O)c1cc(O)n(-c2ccccc2F)n1)c1ccc(-n2cccn2)cc1 (centres unmarked) [Example 582] has an IC50 of 0.1 to 1 µM.
Compound Cc1ccccc1[C@H](CC(=O)O)NC(=O)c1cc(OCc2c(F)cccc2F)n(-c2ccccc2F)n1 [Example 644] has an IC50 of less than 0.1 µM.
Compound Cc1ccccc1[C@H](CC(=O)O)NC(=O)c1cc(OCC(C)(C)O)n(-c2ccccc2F)n1 [Example 752] has an IC50 of less than 0.1 µM.
Work on Cc1ccc([C@H](CC(=O)O)NC(=O)c2cc(OCC(C)(O)C(C)C)n(-c3ccccc3F)n2)cc1 (stereo partly drawn) [Example 787, (S)-3-{[1-(2-Fluoro-phenyl)-5-(2-hydroxy-2,3-dimethyl-butoxy)-1H-pyrazole-3-carbonyl]-amino}-3-p-tolyl-propionic acid] yielded an IC50 of less than 0.1 µM.
Work on O=C(O)CC(NC(=O)c1cc(OCC2CC2)n(-c2ccccc2F)n1)c1ccc(F)cc1 (centres unmarked) [Example 698] yielded an IC50 of 0.1 to 1 µM.
In the case of O=C(O)CC(NC(=O)c1cc(O)n(-c2ccccc2Cl)n1)c1ccc(-c2cccc(Cl)c2)cc1 (centres unmarked) [Example 540], the IC50 is reported as 0.1 to 1 µM.
O=C(O)CC(NC(=O)c1cc(O)n(-c2ccccc2)n1)c1ccc(N2CCCC2)cc1 (centres unmarked) [Example 565, 3-[(5-Hydroxy-1-phenyl-1H-pyrazole-3-carbonyl)-amino]-3-(4-pyrrolidin-1-yl-phenyl)-propionic acid] gave an IC50 of 1 to 30 µM.

Same assay, conditions: read-out: Activity (2): Cathepsin A inhibitory activity, IC50 class
Work on O=C(O)C[C@H](NC(=O)c1cc(O)n(-c2ccccc2Cl)n1)c1ccc(Cl)cc1Cl [Example 106] yielded an IC50 of 0.1 to 1 µM.
For O=C(O)CC(NC(=O)c1cc(O)n(-c2ccc(F)cc2)n1)c1cccc(Cl)c1Cl (centres unmarked) [Example 352], the IC50 was 0.1 to 1 µM.
For CC(C)[C@](C)(O)COc1cc(C(=O)N[C@@H](CC(=O)O)c2cccc(Cl)c2)nn1-c1ccccc1F [Example 877, (S)-3-(3-Chloro-phenyl)-3-{[1-(2-fluoro-phenyl)-5-((S)-2-hydroxy-2,3-dimethyl-butoxy)-1H-pyrazole-3-carbonyl]-amino}-propionic acid], the IC50 was 0.1 to 1 µM.
For Cc1ccc(C)c(-n2nc(C(=O)NC(CC(=O)O)c3ccc(C(F)(F)F)cc3)cc2O)c1 (centres unmarked) [Example 57], the IC50 was 1 to 30 µM.
For O=C(O)C[C@H](NC(=O)c1cc(O)n(-c2ccc(Cl)cc2)n1)c1ccc(Cl)cc1Cl [Example 297], the IC50 was 0.1 to 1 µM.
With O=C(O)C[C@H](NC(=O)c1cc(O)n(-c2cccc(F)c2)n1)c1ccc(C(F)(F)F)cc1 [Example 313] the IC50 was 1 to 30 µM.
With CC(C)(C)[C@H](O)COc1cc(C(=O)N[C@@H](CC(=O)O)c2cccc(Cl)c2)nn1-c1ccccc1F [Example 809, (S)-3-(3-Chloro-phenyl)-3-{[1-(2-fluoro-phenyl)-5-((S)-2-hydroxy-3,3-dimethyl-butoxy)-1H-pyrazole-3-carbonyl]-amino}-propionic acid] the IC50 was less than 0.1 µM.
Compound CC(C)C(CC(=O)O)NC(=O)c1cc(O)n(-c2ccccc2)n1 (centres unmarked) [Example 13] has an IC50 of 1 to 30 µM.
Compound CC(C)C(C)(O)COc1cc(C(=O)N[C@H](CC(=O)O)Cc2ccc(C#N)cc2)nn1-c1ccccc1F (stereo partly drawn) [Example 836, (S)-4-(4-Cyano-phenyl)-3-{[1-(2-fluoro-phenyl)-5-(2-hydroxy-2,3-dimethyl-butoxy)-1H-pyrazole-3-carbonyl]-amino}-butyric acid] has an IC50 of 1 to 30 µM.
Compound O=C(O)C[C@H](NC(=O)c1cc(O)n(-c2ccc(F)cc2)n1)c1ccc(C(F)(F)F)cc1 [Example 351] has an IC50 of 1 to 30 µM.
With N#Cc1ccc([C@H](CC(=O)O)NC(=O)c2cc(O)n(-c3ccc(Cl)cc3)n2)cc1 [Example 272] the IC50 was 1 to 30 µM.
Compound O=C(O)CC(NC(=O)c1cc(O)n(-c2ccccc2)n1)c1ccc(Oc2ccccc2)cc1 (centres unmarked) [Example 102] has an IC50 of 0.1 to 1 µM.
For Cc1cccc([C@H](CC(=O)O)NC(=O)c2cc(O)n(-c3ccc(F)cc3)n2)c1 [Example 354], the IC50 was 0.1 to 1 µM.
N#Cc1ccc([C@H](CC(=O)O)NC(=O)c2cc(O)n(-c3ccccc3)n2)cc1 [Example 101] gave an IC50 of 0.1 to 1 µM.
Work on Cc1cccc(C(CC(=O)O)NC(=O)c2cc(O)n(-c3cc(C)ccc3C)n2)c1 (centres unmarked) [Example 51] yielded an IC50 of 1 to 30 µM.
For O=C(O)CC(NC(=O)c1cc(O)n(-c2ccc(F)cc2)n1)c1cccc(C(F)(F)F)c1Cl (centres unmarked) [Example 362], the IC50 was 0.1 to 1 µM.
Cc1cccc([C@H](CC(=O)O)NC(=O)c2cc(O)n(-c3ccc(Cl)cc3)n2)c1 [Example 284] gave an IC50 of 0.1 to 1 µM.

Same assay, conditions: recombinant human cathepsin A 833 ng/ml, Bodipy FL-labeled bradykinin 2 μM, pH 5.5; read-out: CATH-A IC50
With COc1ccc(C(F)(F)F)cc1C(CC(=O)O)NC(=O)c1cc(O)n(-c2ccccc2F)n1 (centres unmarked) [Example 554, 3-{[1-(2-Fluoro-phenyl)-5-hydroxy-1H-pyrazole-3-carbonyl]-amino}-3-(2-methoxy-5-trifluoromethyl-phenyl)-propionic acid] the IC50 was 1.84 µM.
O=C(O)CC(NC(=O)c1cc(O)n(-c2ccccc2Cl)n1)c1cc(F)ccc1C(F)(F)F (centres unmarked) [Example 460, 3-{[1-(2-Chloro-phenyl)-5-hydroxy-1H-pyrazole-3-carbonyl]-amino}-3-(5-fluoro-2-trifluoromethyl-phenyl)-propionic acid] was tested, and the IC50 was 0.118 µM.
For Cc1ccc(C(CC(=O)O)NC(=O)c2cc(O)n(-c3ccccc3F)n2)c(F)c1 (centres unmarked) [Example 555, 3-(2-Fluoro-4-methyl-phenyl)-3-{[1-(2-fluoro-phenyl)-5-hydroxy-1H-pyrazole-3-carbonyl]-amino}-propionic acid], the IC50 was 0.239 µM.
O=C(O)CC(NC(=O)c1cc(O)n(-c2ccccc2Cl)n1)c1cccc2c1OC(F)(F)O2 (centres unmarked) [Example 503, 3-{[1-(2-Chloro-phenyl)-5-hydroxy-1H-pyrazole-3-carbonyl]-amino}-3-(2,2-difluoro-benzo[1,3]dioxol-4-yl)-propionic acid] was tested, and the IC50 was 0.391 µM.
With O=C(O)CC(NC(=O)c1cc(O)n(-c2ccccc2)n1)c1ccc(N2CCCC2)cc1 (centres unmarked) [Example 565, 3-[(5-Hydroxy-1-phenyl-1H-pyrazole-3-carbonyl)-amino]-3-(4-pyrrolidin-1-yl-phenyl)-propionic acid] the IC50 was 5.02 µM.

Same assay, conditions: recombinant human cathepsin A; read-out: Activity (2): Cathepsin A inhibitory activity, IC50 class
In the case of COc1cc(C(=O)N[C@@H](CC(=O)N[C@H](C)C(C)C)c2ccccc2C)nn1-c1ccccc1F [Example 939, 1-(2-Fluoro-phenyl)-5-methoxy-1H-pyrazole-3-carboxylic acid [(S)-2-((R)-1,2-dimethyl-propylcarbamoyl)-1-o-tolyl-ethyl]-amide], the IC50 is reported as less than 0.1 µM.
For O=C(O)CC(NC(=O)c1cc(O)n(-c2ccccc2Cl)n1)c1cc(F)ccc1C(F)(F)F (centres unmarked) [Example 460, 3-{[1-(2-Chloro-phenyl)-5-hydroxy-1H-pyrazole-3-carbonyl]-amino}-3-(5-fluoro-2-trifluoromethyl-phenyl)-propionic acid], the IC50 was 0.1 to 1 µM.
O=C(O)C[C@H](NC(=O)c1cc(O)n(-c2cccc(Cl)c2)n1)c1cccc(Cl)c1 [Example 415] showed an IC50 of 0.1 to 1 µM.
For O=C(O)CC(NC(=O)c1cc(O)n(-c2ccc(F)cc2)n1)c1ccc(Oc2ccccc2)cc1 (centres unmarked) [Example 437], the IC50 was 0.1 to 1 µM.
Compound O=C(O)CC(NC(=O)c1cc(O)n(-c2ccccc2Cl)n1)c1cccc2c1OC(F)(F)O2 (centres unmarked) [Example 503, 3-{[1-(2-Chloro-phenyl)-5-hydroxy-1H-pyrazole-3-carbonyl]-amino}-3-(2,2-difluoro-benzo[1,3]dioxol-4-yl)-propionic acid] has an IC50 of 0.1 to 1 µM.
In the case of COc1cc(C(=O)N[C@@H](CC(=O)Nc2cc(C)[nH]n2)c2ccccc2C)nn1-c1ccccc1F [Example 923, 1-(2-Fluoro-phenyl)-5-methoxy-1H-pyrazole-3-carboxylic acid [(S)-2-(5-methyl-1H-pyrazol-3-ylcarbamoyl)-1-o-tolyl-ethyl]-amide], the IC50 is reported as 1 to 30 µM.

Source: patent publication US8664257B2, “Oxygen-substituted 3-heteroaroylamino-propionic acid derivatives and their use as pharmaceuticals” (Sanofi, priority 2010, dated 2014)
